Laboratory results taken from patent US11964984B2, “TXNIP-TRX complex inhibitors and methods of using the same” (CITY OF HOPE, priority 2020, dated 2024).

Columns and labels:
[1] = tested on: TXNIP mRNA; experiment: TXNIP mRNA expression in THP1 cells under 25 mM glucose (RT-PCR); format: cell-based, human
Protocol: FIGS. 2A-2B. FIG. 2A: C30 and C38 inhibited TXNIP mRNA expression in THP1 cells. THP1 cells were cultured under 25 mM glucose with the indicated concentrations of compounds for 72 hours. Cells were then collected for total RNA preparation. RT-PCR was performed, and data shown are the mean±SEM from triplicates. Statistical analysis was performed using one-way ANOVA, *p<0.0001. FIG. 2B: C30 and C38 inhibited TNF-α mRNA expression in THP1 cells. THP1 cells were cultured under 25 mM glucose with various concentrations of compounds as indicated for 72 hours and collected for total RNA preparation. RT-PCR was performed, and data shown are the mean±SEM from triplicates. Statistical analysis was performed using one-way ANOVA: *<0.02; **<0.0001.
FIG. 6. C38 analogues effects on TXNIP mRNA expression in THP1 cells. THP1 cells were cultured under 25 mM glucose with 2.5 uM of compounds for 72 h. Total RNA was collected. RT-PCR was performed in triplicate and data shown are the mean±SEM. Statistical analysis was performed using one-way ANOVA: *p<0.0001.
FIG. 7. C38 and analogue E2 effects on TXNIP mRNA levels in THP cells. THP1 cells were cultured under 25 mM glucose with several concentration of C38 and E2 as indicated for 72 hours. Total RNA was prepared. RT-PCR was performed in triplicate and data shown are the mean±SEM. Statistical analysis was performed for each column vs. without compound control using one-way ANOVA: *p<0.0001.
C30 and C38 inhibited TXNIP mRNA expression in THP1 cells.
Discovery of lead compound analogues. A search of chemical libraries was performed in the interest of identifying possible lead compound analogues. Analogues to C38 were identified. To determine the properties of the analogues, we treated THP1 cells with the E batch compounds for three days, prepared RNA and measured TXNIP mRNA levels.
RNA extraction and quantitative RT-PCR. RNA was extracted using the Direct-zol™ RNA MiniPrep Plus (Zymo Research). Reverse transcription of RNA samples into cDNA was performed using the GeneAmp RNA PCR Kit (Applied Biosystems), dNTP (from Roche Applied Science), Rnase inhibitor, MULV Reverse Transcriptase and Random hexamers reagent (all from Invitrogen). Diluted cDNA was quantified using real-time PCR performed with Power SYBR Green qPCR MasterMix (Applied Biosystem) and 7500 real-time PCR system (Applied Biosystems). The HPRT1 gene was used as an internal control.

[2] = tested on: TXNIP; conditions: literature (Nature Med. 2018); cited from earlier work

| SMILES | TXNIP mRNA expression (C38 analogues screen) ([1]; 2.5 uM compound, 72 h) | TXNIP mRNA levels, E2 compared with C38 ([1]; several concentrations, 72 hours) | expression of TXNIP [2] |
| --- | --- | --- | --- |
| COc1ccc(CCNc2ncnc3c2oc2ccccc23)cc1OC [Compound E2] | strongly inhibited TXNIP mRNA expression | moderately better than C38 |  |
| COc1ccc(CCN(C)CCCC(C#N)(c2ccc(OC)c(OC)c2)C(C)C)cc1OC (stereo not drawn) [Verapamil] |  |  | inhibit the expression of TXNIP |
